molecular target: T1, human CCR5 chemokine receptor (Homo sapiens, UniProt P51681); experiment: CCR5 membrane binding assay (inhibition of RANTES binding); conditions: membranes from NIH 3T3 cells expressing human CCR5; 125I-RANTES
T1 construct: expressed in transfected cells; host or cells: NIH 3T3 cells (mouse fibroblasts), membrane preparation
Protocol: CCR5 Membrane Binding Assay:
A high throughput screen utilizing a CCR5 membrane binding assay identifies inhibitors of RANTES binding. This assay utilizes membranes prepared from NIH 3T3 cells expressing the human CCR5 chemokine receptor which have the ability to bind to RANTES, a natural ligand for the receptor. Using a 96-well plate format, membrane preparations are incubated with ^125I-RANTES in the presence or absence of compound for one hour. Compounds are serially diluted over a wide range of 0.001 ug/ml to 1 ug/ml and tested in triplicates. Reaction cocktails are harvested through glass fiber filters, and washed thoroughly. Total counts for replicates are averaged and data reported as the concentration required to inhibit 50 percent of total ^125I-RANTES binding.

T1 sequence (P51681 whole entry): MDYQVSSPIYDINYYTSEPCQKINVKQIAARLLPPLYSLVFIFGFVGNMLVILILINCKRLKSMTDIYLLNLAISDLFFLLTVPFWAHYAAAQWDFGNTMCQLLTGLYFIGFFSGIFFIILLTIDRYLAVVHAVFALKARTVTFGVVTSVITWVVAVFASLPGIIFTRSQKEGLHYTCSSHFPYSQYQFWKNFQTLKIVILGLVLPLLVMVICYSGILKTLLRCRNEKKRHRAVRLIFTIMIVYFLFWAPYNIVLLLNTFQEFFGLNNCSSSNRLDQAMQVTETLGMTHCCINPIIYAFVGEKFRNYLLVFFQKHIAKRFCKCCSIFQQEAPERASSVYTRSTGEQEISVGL

SMILES | Ki
Cc1ccnc(C)c1C(=O)N1CCC(C)(N2CCC(C(Oc3ccccn3)c3ccc(Br)cc3)CC2)CC1 (single isomer, unassigned) [Example 4B] | 0.5 nM
CCO/N=C(\c1ccc(Br)cc1)C1CCN(C2(C)CCN(C(=O)c3c(C)ncnc3C)CC2)CC1 [Example 5N] | 1.7 nM
CC1(N2CCC(Cc3ccc(Br)cc3)CC2)CCN(C(=O)c2cccc3ccccc23)CC1 [Example 9D] | 588 nM
Cc1ccnc(C)c1C(=O)N1CCC(C)(N2CCC(C(Oc3cnccn3)c3ccc(S(C)(=O)=O)cc3)CC2)CC1 (stereo not shown) [Example 2S] | 17.9 nM
CO/N=C(\c1ccc(Br)cc1)C1CCN(C2(C)CCN(C(=O)c3c(C)ncnc3C)CC2)CC1 [Example 5L] | 7.9 nM
CCO/N=C(\c1ccc(C(F)(F)F)cc1)C1CCN(C2(C)CCN(C(=O)c3c(Cl)cncc3Cl)CC2)CC1 [Example 6V] | 0.8 nM
CCO/N=C(\c1ccc(Br)cc1)C1CCN(C2(C)CCN(C(=O)c3c(C)cc(-c4ccncc4)cc3C)CC2)CC1 [Example 5AB] | 0.1 nM
Cc1cccc(C)c1C(=O)N1CCC(C)(N2CCC(C(Oc3nccs3)c3ccc(Br)cc3)CC2)CC1 (stereo not shown) [Example 1J] | 1 nM
Cc1ccnc(C)c1C(=O)N1CCC(C)(N2CCC(C(Oc3ccccn3)c3ccc(C(F)(F)F)cc3)CC2)CC1 (stereo not shown) [Example 2G] | 1.8 nM
CC1(N2CCC(C(Oc3ccccn3)c3ccc(C(F)(F)F)cc3)CC2)CCN(C(=O)c2c(Cl)cncc2Cl)CC1 (stereo not shown) [Example 2JJ] | 0.58 nM
